# Results reported in patent US4137313A, “2,5-Dihydro-1,2-thiazino(5,6-b)indole-3-carboxamide-1,1-dioxides and salts thereof” (Boehringer Ingelheim GmbH, priority 1977, dated 1979).
# Experiments:
# [1] = tested on: male and female mice; assay: Determination of acute toxicity, oral administration; format: in vivo; conditions: 1 000 mgm/kg oral, 10 mice; for Dead animals within observation period 1 day: within 1 day; for Dead animals within observation period 7 days: within 7 days; for Dead animals within observation period 14 days: within 14 days
# Experimental: (b) Determination of Acute Toxicity
# The acute toxicity was determined in male and female mice after oral administration of the test compound as a suspension in tylose.
# [2] = tested on: platelet aggregation in platelet-enriched plasma of healthy humans; assay: BORN-Test, collagen-induced platelet aggregation; format: cell-based; conditions: Homo sapiens, vs control, read-out: % decrease in aggregation; for inhibition at 20 µM: 2 × 10^-5 Mol/liter; for inhibition at 2 µM: 2 × 10^-6 Mol/liter; for inhibition at 100 µM: 1 × 10^-4 Mol/liter; for inhibition at 10 µM: 1 × 10^-5 Mol/liter
# Experimental: (a) BORN-Test, Collagen-Induced Aggregation
# The platelet aggregation was measured according to the method of BORN and CROSS (J. Physiol. 170, pp. 397 [1964]) in platelet-enriched plasma of healthy humans. The decrease in the optical density of the platelet suspension after addition of collagen was measured and registered photometrically. From the angle of inclination of the density curve the rate of aggregation can be determined. […] The quantity of collagen was chosen so that it produced an irreversible control curve.
# The indicated values refer to the optical density and signify the percentage change in the light transmission (=% decrease in aggregation) under the influence of the test compound in comparision to the control.
# Commercial collagen manufactured by Hormon-Chemie, Munich, Germany, was used.
Compound,Dead animals within observation period 1 day [1],Dead animals within observation period 7 days [1],Dead animals within observation period 14 days [1],inhibition at 20 µM [2] [%],inhibition at 2 µM [2] [%],inhibition at 0.2 µM ([2]; 2 × 10^-7 Mol/liter) [%],inhibition at 50 µM ([2]; 5 × 10^-5 Mol/liter) [%],inhibition at 5 µM ([2]; 5 × 10^-6 Mol/liter) [%],inhibition at 100 µM [2] [%],inhibition at 10 µM [2] [%],inhibition at 1 µM ([2]; 1 × 10^-6 Mol/liter) [%]
"CN1C(C(=O)Nc2nccs2)=C(O)c2c(c3ccccc3n2C)S1(=O)=O [A, 2,5-dihydro-2,5-dimethyl-4-hydroxy-N-(2-thiazolyl)-1,2-thiazino[5,6-b]indole-3-carboxamide-1,1-dioxide]",0,0,0,96,81,,,,,,
"Cc1csc(NC(=O)C2=C(O)c3c(c4ccccc4n3C)S(=O)(=O)N2C)n1 [B, 2,5-dihydro-2,5-dimethyl-4-hydroxy-N-(4-methyl-2-thiazolyl)-1,2-thiazino[5,6-b]indole-3-carboxamide-1,1-dioxide]",0,0,0,100,97,42,,,,,
"Cc1nc(NC(=O)C2=C(O)c3c(c4ccccc4n3C)S(=O)(=O)N2C)sc1C [C, 2,5-dihydro-2,5-dimethyl-N-(4,5-dimethyl-2-thiazolyl)-4-hydroxy-1,2-thiazino[5,6-b]indole-3-carboxamide-1,1-dioxide]",,,,89,82,,,,,,
"Cc1cccc(NC(=O)C2=C(O)c3c(c4ccccc4n3C)S(=O)(=O)N2C)n1 [D, 2,5-dihydro-2,5-dimethyl-4-hydroxy-N-(6-methyl-2-pyridyl)-1,2-thiazino[5,6-b]indole-3-carboxamide-1,1-dioxide]",0,0,0,,,,86,60,,,
"CN1C(C(=O)Nc2nccs2)=C(O)c2c(c3cc(Cl)ccc3n2C)S1(=O)=O [E, 8-chloro-2,5-dihydro-2,5-dimethyl-4-hydroxy-N-(2-thiazolyl)-1,2-thiazino[5,6-b]indole-3-carboxamide-1,1-dioxide]",0,0,0,,,,,,100,86,27
"COc1ccc2c(c1)c1c(n2C)C(O)=C(C(=O)Nc2ccccn2)N(C)S1(=O)=O [F, 2,5-dihydro-2,5-dimethyl-4-hydroxy-8-methoxy-N-(2-pyridyl)-1,2-thiazino[5,6-b]indole-3-carboxamide-1,1-dioxide]",,,,,,,,,85,43,
